Source: article PMC3895568, “Isolation and characterization of Leucine dehydrogenase from a thermophilic Citrobacter freundii JK-91strain Isolated from Jask Port” (Iranian Journal of Microbiology, 2013)

System: T1, LeuDH (Leucine dehydrogenase, EC 1.4.1.9)
T1 construct: native enzyme purified from isolate JK-91 (ammonium sulfate, DEAE-Toyopearl, TSK gel G3000SW); subunit 40 kDa, about 320 kDa, octamer
Experiment: NADH formation at […] nm, oxidative deamination
Assay type: biochemical, Citrobacter freundii
Conditions: co-substrate NAD+; standard assay 50 mM glycine-NaOH pH 10.4, 100 mM NaCl, 2.5 mM NAD+; exact conditions and temperature of the kinetics not stated

In the case of `CC(C)C[C@H](N)C(=O)O` [L-leucine], the Km is reported as 1200 µM.
